The RepoRT retention time repository

Test: HILIC, Waters ACQUITY UPLC BEH Amide, 100 × 2.1 mm, 1.7 µm; A: water + 0.125% formic acid + 10 mM ammonium formate; B: 5% water + 95% acetonitrile + 0.125% formic acid + 10 mM ammonium formate; gradient (min/%B) 0/100 2/100 7.7/70 9.5/40 10.25/30 12.75/100 17/100
Conditions: stereoisomer not certain

Row | SMILES | LC retention time [min]
1 | C[N+]1(C)CCCC1C(=O)O (stereo unspecified) [Stachydrine] | 7.1
2 | COc1ccccc1OCC(O)CN1CCN(CC(=O)Nc2c(C)cccc2C)CC1 (stereo unspecified) [Ranolazine] | 2.79
3 | NC12CC3CC(CC(C3)C1)C2 [Amantadine] | 4.88
4 | CCCCCCCCCCCC(CC1OC(=O)C1CCCCCC)OC(=O)C(CC(C)C)NC=O (stereo unspecified) [Orlistat] | 0.89
5 | O=C(O)Cc1cccc(O)c1 [3-Hydroxyphenylacetic acid] | 1.45
6 | CN(C)C=O [N,N-Dimethylformamide] | 1.29
7 | CCCCCCCCO [Octanol] | 8.47
8 | CCC1=CC2CN(C1)Cc1c([nH]c3ccccc13)C(C(=O)OC)(c1cc3c(cc1OC)N(C)C1C(O)(C(=O)OC)C(OC(C)=O)C4(CC)C=CCN5CCC31C54)C2 (stereo unspecified) [Vinorelbine] | 4.76
9 | NC(=O)C=CC(=O)O [Maleamic acid] | 1.12
10 | c1ccc(C2CN3CCSC3=N2)cc1 (stereo unspecified) [Levamisole] | 2.95
11 | O=c1cccc[nH]1 [2-Pyridone] | 2.05
12 | CN1C(=O)CCC1c1cccnc1 (stereo unspecified) [Cotinine] | 1.49
13 | COc1ccc(CCN)cc1OC [Homoveratrylamine] | 4.78
14 | COc1cc2c(cc1OC)C(=O)C(CC1CCN(Cc3ccccc3)CC1)C2 (stereo unspecified) [Donepezil] | 2.44
15 | NCCOP(=O)(O)O [O-Phosphocolamine] | 9.23
16 | C=C(C)CN1CCC23c4c5ccc(O)c4OC2c2[nH]c4ccccc4c2CC3(O)C1C5 (stereo unspecified) | 2.93
17 | C[N+](C)(C)CC(=O)[O-] [Betaine] | 7.24
18 | CN(C)CCOc1ccc(C(=C(CCCl)c2ccccc2)c2ccccc2)cc1 [Toremifene] | 1.89
19 | CC(NC(CCc1ccccc1)C(=O)O)C(=O)N1CCCC1C(=O)O (stereo unspecified) [Enalaprilat] | 7.07
20 | NC(N)=NCCCC(N)C(=O)O (stereo unspecified) [Arginine] | 9.53
21 | CNC(Cc1ccc(O)cc1)C(=O)[O-] (stereo unspecified) [Methyltyrosinate] | 4.23
22 | COC(=O)c1ccccc1C(=O)OC [Dimethyl phthalate] | 1.04
23 | Nc1ncnc2c1ncn2C1OC(COP(=O)(O)O)C(O)C1O (stereo unspecified) [Adenosine 5'-monophosphate] | 8.88

Row | SMILES | LC retention time [min]
24 | COc1cc2nc(N(C)CCCNC(=O)C3CCCO3)nc(N)c2cc1OC (stereo unspecified) [Alfuzosin] | 4.29
25 | CC12CC(=O)C3C(CCC4=CC(=O)CCC43C)C1CCC2=O (stereo unspecified) [Adrenosterone] | 1.1
26 | CCCC(=O)OC(CC(=O)[O-])C[N+](C)(C)C [(R)-Butyrylcarnitine] | 5.77
27 | O=C1Nc2ccc(Cl)cc2C(C#CC2CC2)(C(F)(F)F)O1 (stereo unspecified) [Efavirenz] | 0.98
28 | CC(=O)OC1CC2CCC3C(CCC4(C)C3CC([N+]3(C)CCCCC3)C4OC(C)=O)C2(C)CC1N1CCCCC1 (stereo unspecified) [Vercuronium] | 5.53
29 | Cc1ccccc1-n1c(C)nc2ccccc2c1=O [Methaqualone] | 1.1
30 | CCN(CC)C(=S)SSC(=S)N(CC)CC [Disulfiram] | 0.93
31 | Nc1ncnc2c1ncn2C1CC2OP(=O)(O)OCC2O1 (stereo unspecified) [3',5'-Cyclic dAMP] | 7.29
32 | CN1CCN(c2c(F)cc3c(=O)c(C(=O)O)cn4c3c2SCC4)CC1 [Rufloxacin] | 4.65
33 | CNC[C@H](N)C(=O)O [beta-N-Methylaminoalanine] | 9.32
34 | CCCCCC=CCC=CCC=CCC=CCCCC(=O)NCCc1ccc(O)c(O)c1 [Arachidonyl dopamine] | 1.14
35 | CC(=O)NCCc1cnc[nH]1 [N-omega-Acetylhistamine] | 6
36 | O=C1CN=C(c2ccccc2)c2cc([N+](=O)[O-])ccc2N1 [Nitrazepam] | 1.2
37 | O=c1ccc2ccccc2o1 [Coumarin] | 1.08
38 | CC(C)CC(=O)OC(CC(=O)[O-])C[N+](C)(C)C [Isovaleryl-L-carnitine] | 5.36
39 | Cc1nccn1CC1CCc2c(c3ccccc3n2C)C1=O (stereo unspecified) [Ondansetron] | 2.83
40 | COc1cc2c(=O)c(-c3ccc(O)cc3)coc2cc1O [Glycitein] | 1.32
41 | CN(C)c1ccc(N=Nc2ccccc2)cc1 [p-(Dimethylamino)azobenzene [methyl yellow]] | 0.93
42 | CC=CC(=O)N(CC)c1ccccc1C [Crotamiton] | 0.97
43 | CC(=O)CCCC(=O)O [4-Acetylbutyric acid] | 1.24
44 | CC(N)Cc1ccccc1 (stereo unspecified) [Amphetamine] | 4.6
45 | C=Cc1ccc(O)c(OC)c1 [2-Methoxy-4-vinylphenol] | 8.71
46 | COc1cc(-c2oc3cc(O)cc(O)c3c(=O)c2OC2OC(CO)C(O)C(O)C2O)cc(OC)c1O (stereo unspecified) [Syringetin-3-O-glucoside] | 4.32
